{
  "source": "patent US20230090255A1",
  "about": "“MAGL INHIBITOR, PREPARATION METHOD THEREFOR AND USE THEREOF” (LUNAN PHARMACEUTICAL GROUP CORPORATION, priority 2019, published 2023)",
  "key": {"[1]": {"test_system": "ulcerative colitis mice", "experiment": "Mice ulcerative colitis (DSS)", "format": "in vivo, BALB/c mice", "settings": "for Total times of hematochezia within the four periods / Colon length / IL-1 content: DSS mice; for Colon length: four periods; for IL-1 content: serum, ELISA"}, "[2]": {"test_system": "irritable bowel syndrome rats", "experiment": "Irritable bowel syndrome rats induced by early maternal separation", "format": "in vivo, SD rats", "design": "AWR scoring: scale not given here", "settings": "for Colon 5-HT / Serum 5-HT / AWR scoring: IBS rats"}, "[3]": {"test_system": "mice writhing caused by acetic acid", "experiment": "Mice writhing caused by acetic acid", "settings": "for Writhing times: 1 h before 0.7% acetic acid ip, within 20 min; for Latent time: time to first writhing; for Inhibition ratio: writhing inhibition"}, "[4]": {"test_system": "mice with inflammatory pain", "experiment": "Pain threshold of mice with inflammatory pain (complete Freund's adjuvant)", "format": "in vivo, SD mice", "settings": "for Pain threshold: complete Freund's adjuvant paw model"}, "[5]": {"test_system": "mice pain response induced by hot plate", "experiment": "Mice pain response induced by hot plate", "format": "in vivo, ICR mice", "settings": "for Pain threshold: hot plate 55°C", "summary_of_the_method": "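Female ICR mice (20±2 g) dosed intragastrically for 7 consecutive days. Latency to hind-paw licking on a 55±0.5° C hot plate measured at 30, 60, 90 and 120 min after the last dose, with a 60 s cap. Mice with baseline latency <5 s or >30 s, or jumping, excluded.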"}},
  "data": [
    {"smiles": "O=C(Nc1cccc(Cl)c1)C1CCN(C(=O)c2cc3ccccc3[nH]2)CC1", "note": "[MAGLZ-II-18]", "values": [
      {"measurement": "Total times of hematochezia within the four periods", "setting": "[1]; high dose 30 mg/kg ig", "result": "32.80±4.37"},
      {"measurement": "Colon length", "setting": "[1]; high dose 30 mg/kg ig", "result": "6.73±0.63", "unit": "cm"},
      {"measurement": "IL-1 content", "setting": "[1]; high dose 30 mg/kg ig", "result": "46.98 ± 7.56", "unit": "pg/mL"},
      {"measurement": "Total times of hematochezia within the four periods", "setting": "[1]; low dose 7.5 mg/kg ig", "result": "32.80±4.64"},
      {"measurement": "Colon length", "setting": "[1]; low dose 7.5 mg/kg ig", "result": "6.44±0.64", "unit": "cm"},
      {"measurement": "IL-1 content", "setting": "[1]; low dose 7.5 mg/kg ig", "result": "46.15 ± 9.65", "unit": "pg/mL"},
      {"measurement": "Total times of hematochezia within the four periods", "setting": "[1]; middle dose 15 mg/kg ig", "result": "33.90±4.77"},
      {"measurement": "Colon length", "setting": "[1]; middle dose 15 mg/kg ig", "result": "6.37±0.39", "unit": "cm"},
      {"measurement": "IL-1 content", "setting": "[1]; middle dose 15 mg/kg ig", "result": "49.01 ± 5.65", "unit": "pg/mL"},
      {"measurement": "IL-1 content, in words", "setting": "[1]; compared with the model group", "result": "decrease"},
      {"measurement": "colon length, in words", "setting": "[1]; compared with the model group", "result": "significantly increase"},
      {"measurement": "total times of hematochezia, in words", "setting": "[1]; compared with the model group", "result": "reduce"},
      {"measurement": "Colon 5-HT", "setting": "[2]; high dose 30 mg/kg ig 20 d", "result": "14.33±2.10^∗∗∗ µg/mg"},
      {"measurement": "Serum 5-HT", "setting": "[2]; high dose 30 mg/kg ig 20 d", "result": "30.86±5.28^∗∗∗ µg/ml"},
      {"measurement": "AWR scoring", "setting": "[2]; high dose 30 mg/kg ig 20 d, 20 mm Hg", "result": "1.87±0.36^∗∗ ∗"},
      {"measurement": "AWR scoring", "setting": "[2]; high dose 30 mg/kg ig 20 d, 40 mm Hg", "result": "2.6±0.54^∗∗∗"},
      {"measurement": "AWR scoring", "setting": "[2]; high dose 30 mg/kg ig 20 d, 60 mm Hg", "result": "3.09±0.34^∗∗∗"},
      {"measurement": "Colon 5-HT", "setting": "[2]; low dose 7.5 mg/kg ig 20 d", "result": "21.91 ± 2.46", "unit": "µg/mg"},
      {"measurement": "Serum 5-HT", "setting": "[2]; low dose 7.5 mg/kg ig 20 d", "result": "35.73 ± 3.32", "unit": "µg/mL"},
      {"measurement": "AWR scoring", "setting": "[2]; low dose 7.5 mg/kg ig 20 d, 20 mm Hg", "result": "2.59±0.33"},
      {"measurement": "AWR scoring", "setting": "[2]; low dose 7.5 mg/kg ig 20 d, 40 mm Hg", "result": "3.26±0.39"},
      {"measurement": "AWR scoring", "setting": "[2]; low dose 7.5 mg/kg ig 20 d, 60 mm Hg", "result": "3.65±0.23^∗"},
      {"measurement": "Colon 5-HT", "setting": "[2]; middle dose 15 mg/kg ig 20 d", "result": "14.89±3.19^∗∗ µg/mg"},
      {"measurement": "Serum 5-HT", "setting": "[2]; middle dose 15 mg/kg ig 20 d", "result": "29.12±7.05^∗∗ µg/ml"},
      {"measurement": "AWR scoring", "setting": "[2]; middle dose 15 mg/kg ig 20 d, 20 mm Hg", "result": "2.29±0.36^∗∗"},
      {"measurement": "AWR scoring", "setting": "[2]; middle dose 15 mg/kg ig 20 d, 40 mm Hg", "result": "3.01±0.40^∗∗"},
      {"measurement": "AWR scoring", "setting": "[2]; middle dose 15 mg/kg ig 20 d, 60 mm Hg", "result": "3.3±0.45^∗∗"},
      {"measurement": "5-HT level in colon and serum, in words", "setting": "[2]; compared with the model group", "result": "significantly decrease"},
      {"measurement": "AWR scoring, in words", "setting": "[2]; compared with the model group", "result": "significantly decrease"},
      {"measurement": "Writhing times", "setting": "[3]; high dose 30 mg/kg ig", "result": "15.8±15.3"},
      {"measurement": "Latent time", "setting": "[3]; high dose 30 mg/kg ig", "result": "410.9 ± 186.5", "unit": "s"},
      {"measurement": "Inhibition ratio", "setting": "[3]; high dose 30 mg/kg ig", "result": 59.8, "unit": "%"},
      {"measurement": "Writhing times", "setting": "[3]; low dose 7.5 mg/kg ig", "result": "25.0±13.5"},
      {"measurement": "Latent time", "setting": "[3]; low dose 7.5 mg/kg ig", "result": "318.7 ± 120.2", "unit": "s"},
      {"measurement": "Inhibition ratio", "setting": "[3]; low dose 7.5 mg/kg ig", "result": 36.4, "unit": "%"},
      {"measurement": "Writhing times", "setting": "[3]; middle dose 15 mg/kg ig", "result": "21.8±12.4"},
      {"measurement": "Latent time", "setting": "[3]; middle dose 15 mg/kg ig", "result": "381.4 ± 127.1", "unit": "s"},
      {"measurement": "Inhibition ratio", "setting": "[3]; middle dose 15 mg/kg ig", "result": 44.5, "unit": "%"},
      {"measurement": "pain threshold of the mice with inflammatory pain, in words", "setting": "[4]; compared with the model group", "result": "significantly extend"},
      {"measurement": "Pain threshold", "setting": "[4]; high dose 30 mg/kg ig once per day, 0 d", "result": "12.85±2.26^∗∗ s"},
      {"measurement": "Pain threshold", "setting": "[4]; high dose 30 mg/kg ig once per day, 1 d", "result": "6.95±0.85^∗∗ s"},
      {"measurement": "Pain threshold", "setting": "[4]; high dose 30 mg/kg ig once per day, 3 d", "result": "8.49±1.15^∗∗ s"},
      {"measurement": "Pain threshold", "setting": "[4]; high dose 30 mg/kg ig once per day, 7 d", "result": "9.62±0.93^∗∗ s"},
      {"measurement": "Pain threshold", "setting": "[4]; low dose 7.5 mg/kg ig once per day, 0 d", "result": "12.73±2.43^∗ s"},
      {"measurement": "Pain threshold", "setting": "[4]; low dose 7.5 mg/kg ig once per day, 1 d", "result": "6.39±0.91^∗ s"},
      {"measurement": "Pain threshold", "setting": "[4]; low dose 7.5 mg/kg ig once per day, 3 d", "result": "8.12±1.29^∗ s"},
      {"measurement": "Pain threshold", "setting": "[4]; low dose 7.5 mg/kg ig once per day, 7 d", "result": "9.16±1.17^∗ s"},
      {"measurement": "Pain threshold", "setting": "[4]; middle dose 15 mg/kg ig once per day, 0 d", "result": "12.86±2.25^∗∗ s"},
      {"measurement": "Pain threshold", "setting": "[4]; middle dose 15 mg/kg ig once per day, 1 d", "result": "6.62±0.69^∗∗ s"},
      {"measurement": "Pain threshold", "setting": "[4]; middle dose 15 mg/kg ig once per day, 3 d", "result": "8.24±0.73^∗∗ s"},
      {"measurement": "Pain threshold", "setting": "[4]; middle dose 15 mg/kg ig once per day, 7 d", "result": "9.51±1.15^∗∗ s"},
      {"measurement": "pain thresholds of the thermal-stimulus mice, in words", "setting": "[5]; compared with the model group", "result": "significantly extend"},
      {"measurement": "Pain threshold", "setting": "[5]; high dose 30 mg/kg ig 7 d, 30 min after final administration", "result": "26.73 ± 7.37", "unit": "s"},
      {"measurement": "Pain threshold", "setting": "[5]; high dose 30 mg/kg ig 7 d, 60 min", "result": "27.22 ± 7.29", "unit": "s"},
      {"measurement": "Pain threshold", "setting": "[5]; high dose 30 mg/kg ig 7 d, 90 min", "result": "27.86 ± 7.93", "unit": "s"},
      {"measurement": "Pain threshold", "setting": "[5]; high dose 30 mg/kg ig 7 d, 120 min", "result": "27.62 ± 10.01", "unit": "s"},
      {"measurement": "Pain threshold", "setting": "[5]; low dose 7.5 mg/kg ig 7 d, 30 min after final administration", "result": "26.33 ± 7.52", "unit": "s"},
      {"measurement": "Pain threshold", "setting": "[5]; low dose 7.5 mg/kg ig 7 d, 60 min", "result": "26.74 ± 7.05", "unit": "s"},
      {"measurement": "Pain threshold", "setting": "[5]; low dose 7.5 mg/kg ig 7 d, 90 min", "result": "27.16 ± 7.32", "unit": "s"},
      {"measurement": "Pain threshold", "setting": "[5]; low dose 7.5 mg/kg ig 7 d, 120 min", "result": "26.64 ± 10.03", "unit": "s"},
      {"measurement": "Pain threshold", "setting": "[5]; middle dose 15 mg/kg ig 7 d, 30 min after final administration", "result": "26.41 ± 7.53", "unit": "s"},
      {"measurement": "Pain threshold", "setting": "[5]; middle dose 15 mg/kg ig 7 d, 60 min", "result": "27.09 ± 7.53", "unit": "s"},
      {"measurement": "Pain threshold", "setting": "[5]; middle dose 15 mg/kg ig 7 d, 90 min", "result": "27.58 ± 7.71", "unit": "s"},
      {"measurement": "Pain threshold", "setting": "[5]; middle dose 15 mg/kg ig 7 d, 120 min", "result": "27.38 ± 9.97", "unit": "s"}
    ]}
  ]
}
